Measurements taken from patent publication US20230158015A1, “DRUG COMBINATIONS FOR INHIBITING INFLAMMATION AND SRC KINASE ACTIVATION FOLLOWING INVASIVE SURGICAL PROCEDURES” (SINTETICA S.A., priority 2020, published 2023).
Like-named read-outs stand apart in the source and are kept apart here.

What was measured:
p-Src / total Src [1] = assay type: cell-based, mouse
Experimental: On day 1, mouse KPC-105 cells were cultured until 300,000 cells per well in a 6 well plate were obtained. On day 2, the cells were treated with 0, 0.5, 1,5, 10, 15, 30, 50 and 100 µM lidocaine for 30 minutes. Plates were then collected and washed with phosphate buffered saline and stored at -80° C. Cells were subsequently lysed with 100 µl of radioimmunoprecipitation assay buffer with protease and phosphatase buffers.
(§1) Protein estimation was done using a Bradford assay under the following conditions: • A Western Blot was stripped with 6 M guanidine hydrochloride after p-Src protein blocking to probe with total Src protein. • 10% SDS-PAGE 10 well Blocking: 5% bovine serum albumin for p-Src blot. • P-Src-Tyr416 (GeneTex GTX81151) Rb: 1:1000 in 5% bovine serum albumin, Overnight. • Total Src (Cell Signaling Technology 2108S ) Rb mAb 1:1000 overnight in 5% milk. • GAPDH (Invitrogen# AM4300) : 1:5000 in 5% milk overnight. • Wash: 4x for 5 minutes each with 1x TBST. • Developed using 50% femto for the p-Src protein and homemade ECL substrate for total Src and GAPDH protein.
Example 4 evaluated endogenous Src and p-Src in 10 µM lidocaine treated mouse KPC-105 cells at different time points.
Example 5 evaluated endogenous Src and p-Src in mouse KPC-105 cells treated with 10 10 µM lidocaine for different time points, and increasing doses of methylnaltrexone after one hour of incubation. Western Blot banding patterns were generated using 15 µg /lane (NP40 lysates) 10% SDS PAGE over a 6-hour duration (lidocaine) and a 1-hour duration (methylnaltrexone).
• P-Src-Tyr416 (GeneTex # GTX81151) Rb: 1:1000 in 5% bovine serum albumin o/n at 4° C. • 10 µg /lane (NP40 lysates) 10% SDS PAGE • Total Src (CST # 2108S ) Rb mAb 1:1000 in 5% bovine serum albumin o/n at 4° C.
• P-Src-Tyr416 (GeneTex # GTX81151) Rb: 1:1000 in 5% bovine serum albumin 3 hours at room temperature • 10 µg /lane (NP40 lysates) 10% SDS PAGE • Total Src (CST # 2108S ) Rb mAb 1:1000 in 5% bovine serum albumin 3 hours at room temperature
• P-Src-Tyr416 (GeneTex # GTX81151) 1:2000 in 5% bovine serum albumin, o/n at 4° C. • Total Src (CST # 2108S ) 1:3000 in 5% bovine serum albumin, o/n at 4° C. • Vinculin (ProteinTech) 1:4000 in 5% milk o/n at 4° C.
• P-Src-Tyr416 (GeneTex # GTX81151) 1:2000 in 5% bovine serum albumin, o/n at 4C • Total Src (CST # 2108S ) 1:3000 in 5% bovine serum albumin, o/n at 4C

p-Src / total Src [2] = experiment: Total Src and p-Src expression in AsPc 1 human pancreatic cancer cell line (Western blot); assay type: cell-based
Experimental: (§2) Example 10 evaluated the effect of 10 µM lidocaine (L), 100 nM methylnaltrexone (M) and the combination of 10 µM lidocaine + 100 nM methylnaltrexone (L+M) for 1 hour on total Src and p-Src expression in a human pancreatic cancer cell line (AsPc 1).
(§3) • P-Src-Tyr416 (GeneTex # GTX81151) 1:2000 in 5% bovine serum albumin, at room temperature, 4 hours • Total Src (CST # 2108S) 1:3000 in 5% bovine serum albumin, at room temperature, 4 hours

p-Src / total Src [3] = experiment: Total Src and p-Src expression in MiaPaCa 2 human pancreatic cancer cell line (Western blot); assay type: cell-based; details: 10 µM lidocaine, 100 nM methylnaltrexone or both, one hour
Experimental: as §3
as §2, with “Example 11” for “Example 10”, “line (MiaPaCa 2). Experimental conditions were identical to Example 10.” for “line (AsPc 1).”

p-Src / total Src [4] = experiment: Total Src and p-Src expression in Panc1 human pancreatic cancer cell line (Western blot); assay type: cell-based; details: 10 µM lidocaine, 100 nM methylnaltrexone or both, time points up to 6 hours, fresh media
Experimental: as §3
Example 12 evaluated the effect of 10 µM lidocaine (L), 100 nM methylnaltrexone (M) and the combination of 10 µM lidocaine + 100 nM methylnaltrexone (L+M) on total Src and p-Src expression in a human pancreatic cancer cell line (Panc1) at multiple time points up to 6 hours, in fresh media. Experimental conditions were identical to Example 10.

[5] = system: LPS-challenged C57BL/6 mice; experiment: LPS-induced inflammation model, H&E histopathology of lungs and spleen; assay type: in vivo, mouse
Experimental: (§4) C57BL/6J mice (6-8 weeks) were purchased from Charles River Laboratories (USA) and acclimatized for at least 1 week before use. All mice were housed in a pathogen-free facility. The mice received LPS for 24 hours. Following 24 hours, mice were treated either with lidocaine alone or methylnaltrexone alone or a combination of both, as shown in Table 1.
(§5) At the conclusion of the study, the blood and tissue samples were collected for further study. The serum was used to determine pro-inflammatory cytokines using the LEGENDplex™ mouse inflammation panel (BioLegend, USA) kit followed by flow cytometry. The lungs and spleen tissue samples were used for hematoxylin and eosin (H&E) staining and immunohistochemical analyses for immune cells, including macrophages and natural killer (NK) cells, B cells, T cells, and its subsets. For histopathology and immunohistochemistry (IHC), tissue samples were prepared by cutting 4-µm sections from the paraffin blocks. IHC staining was performed by methods described earlier. The images were captured using bright field microscopy (Nikon Microscope). Two independent investigators evaluated the H&E and all immunohistochemical staining. For slide scoring, each investigator assessed the tissues and gave a score of 0 (no expression) to 4+ (strong uniform expression) as described previously. The data were expressed either as the mean ± SD or mean ± SEM by using Graph Pad Prism software.

[6] = system: LPS-induced serum inflammatory cytokines; experiment: LPS-induced inflammation model, serum inflammatory cytokines (LEGENDplex, flow cytometry); assay type: in vivo, mouse; details: serum of treated mice
Experimental: as §4, §5
Gram-negative bacterial infections are the main cause of acute lung injury, and LPS, which is the main component of the Gram-negative bacteria cell wall, is the major stimulus for the release of inflammatory mediators. Therefore, we measured the effect of lidocaine alone, methylnaltrexone alone, or a combination of lidocaine and methylnaltrexone on LPS-induced serum inflammatory cytokines profiles. Mouse inflammatory cytokines were measured in serum of control and LPS-challenged mice treated with drugs as described in Table 1, using the LEGENDplex™ mouse inflammation panel (BioLegend, USA) kit followed by flow cytometry as per manufacturer’s specifications. […] However, serum tumor necrosis factor-alpha (TNF-α), monocyte chemoattractant protein 1 (MCP- 1), interleukin 10 (IL-10), interleukin 6 (IL-6), and interleukin 17A (IL-17A) levels were found decreased in mice challenged with LPS and treated with lidocaine and methylnaltrexone together (FIGS. 14C-G). IL-1, IL-6, IL-17A, MCP-1, and TNFα are pro- inflammatory cytokines associated with inflammatory signaling. Taken together, these findings indicate that combined treatment of lidocaine and methylnaltrexone has the potential to suppress inflammatory signaling.

[7] = system: immune cells in lungs and spleen of LPS-challenged mice; experiment: LPS-induced inflammation model, IHC staining of immune cells in lungs and spleen; assay type: in vivo, mouse; details: lungs and spleen sections
Experimental: as §4
as §5, with “The data were expressed either as the mean ± SD or mean ± SEM by using Graph Pad Prism software.” left out

[8] = system: human pulmonary microvascular endothelial cell; details: with 5-FU and bevacizumab; cited from earlier work
[9] = system: receptor protein tyrosine phosphatase; details: human endothelial cells, independent of µ-opioid receptor expression; cited from earlier work
[10] = system: patients with advanced disease and cancer; details: regular clinical doses; cited from earlier work
Src protein [11] = experiment: p-Src activation in TNF-α treated KPC-105 mouse cell line (Western blot); assay type: cell-based; details: TNF-α 20 ng/ml
Experimental: (§6) On day 1, KPC-105 mouse and human pancreatic cancer cell lines were cultured until 300,000 cells per well in a 6 well plate were obtained. On day 2, each cell line was treated with 20 ng/ml or mouse or human TNF-α for 2-hours. Cells were then collected and washed with phosphate buffered saline and stored at -80° C. Cells were then lysed with 100 µl of radioimmunoprecipitation assay buffer with protease and phosphatase buffers.
as §1, with “estimation was then performed using a” for “estimation was done using a”, “10% SDS-PAGE with 15 well Blocking:” for “10% SDS-PAGE 10 well Blocking:”, “for p-Src blot P-Src-Tyr416 (GeneTex” for “for p-Src blot. • P-Src-Tyr416 (GeneTex”, “overnight in 5 % milk. •” for “overnight in 5% milk. •”, “homemade ECL for total” for “homemade ECL substrate for total”

Src protein [12] = experiment: p-Src activation in TNF-α treated human pancreatic cancer cell line (Western blot); assay type: cell-based; details: TNF-α 20 ng/ml
Experimental: as §6
as §1, with “estimation was then performed using a” for “estimation was done using a”, “10% SDS-PAGE with 15 well Blocking:” for “10% SDS-PAGE 10 well Blocking:”, “for p-Src blot P-Src-Tyr416 (GeneTex” for “for p-Src blot. • P-Src-Tyr416 (GeneTex”, “overnight in 5 % milk. •” for “overnight in 5% milk. •”, “homemade ECL for total” for “homemade ECL substrate for total”

[13] = Example 8, 10 µM lidocaine, 100 nM methylnaltrexone or both, different time points

Compound	total Src (p-Src / total Src [1]; Example 5, 10 µM lidocaine over 6 hours, increasing doses of methylnaltrexone, 1 hour)	concentrations attenuating Src phosphorylation (p-Src / total Src [1]; Example 5, 1 hour incubation)	phosphorylation of Src (p-Src / total Src [1]; Example 6, 100 nM methylnaltrexone, different time points)	phosphorylation of Src (p-Src / total Src [1]; [13])	total Src (p-Src / total Src [1]; [13])	Src after Src normalization (p-Src / total Src [2]; 100 nM methylnaltrexone exposure, preliminary results)	p-Src activity (p-Src / total Src [2]; 10 µM lidocaine, 100 nM methylnaltrexone or both, one hour)	p-Src (p-Src / total Src [3])	p-Src (p-Src / total Src [4])	H&E staining, histopathology of lungs ([5]; LPS challenged mice, lungs)	histological examination of spleen ([5]; LPS challenged mice, spleen)	LPS-induced inflammation (overall conclusion) ([5]; mouse model, drug alone)	serum interferon-gamma (IFNγ) level [6]	serum interleukin 1 alpha (IL-1α) level [6]	F4/80 positive area (macrophages) [7]	inhibition of VEGF-induced cell proliferation and migration [8]	receptor protein tyrosine phosphatase activity [9]	overall survival [10]	time of maximum activation of Src protein (Src protein [11]) [min]	time of maximum activation of Src protein (Src protein [12]) [min]
C[N@+]1(CC2CC2)CC[C@]23c4c5ccc(O)c4O[C@H]2C(=O)CC[C@@]3(O)[C@H]1C5 [methylnaltrexone]	not affected	above 50 nM	attenuates phosphorylation of Src in KPC-105 cells starting at 2 hours	attenuated phosphorylation of Src after 1 hour of exposure	decreased total Src after 1 hour of exposure	no increase in Src	attenuated p-Src activity	attenuated p-Src	initially decreased p-Src at 30 minutes and 1 hour	perivascular edema and accumulation of mixed cell infiltration within blood, and lymphatic vessels	increased number of erythrocytes in the red pulp, along with mild edema	partially mitigate	insignificant changes	insignificant changes	partially decreased	synergistic effect	increased	increased overall survival	–	–
TNF-α	–	–	–	–	–	–	–	–	–	–	–	–	–	–	–	–	–	–	45	45
O=C1CC[C@@]2(O)[C@H]3Cc4ccc(O)c5c4[C@@]2(CCN3CC2CC2)[C@H]1O5 [naltrexone]	–	–	–	–	–	–	–	–	–	–	–	–	–	–	–	–	not	–	–	–
